# From patent publication US20030186978A1, “Novel telomerase inhibitors” (priority 2000, published 2003)
# Target: telomerase enzyme (Homo sapiens, UniProt O14746)
# Test: Flash Plate-based telomerase assay
# Type: biochemical
# Conditions: two hours of incubation at 37°; only indicative, obtained during screening by fitting a limited number of experimental points
# Excerpt: The telomerase activity of the compounds of the invention has been evaluated using a Flash Plate-based assay. […] Other methods for determining the inhibitory concentration of a compound of the invention against telomerase can be employed as will be apparent to a person skilled in the art based on the disclosure herein.
# Briefly, the assay mixture is costituted by:
# telomerase enzyme diluted in a buffer, the composition of which has been selected to maintain the enzyme activity stable along the duration of the assay.
# dNTPs, deoxynucleotides 5′-triphosphate.
# biotynilated oligo as primer.
# increasing concentrations of test compounds/positive control.
# After two hours of incubation at 37° degrees the telomeric repeats added are evaluated by hybridization in solution with a 3′-labeled short oligonucleotide probe. The extent of hybridization is then quantitated by transferring the reaction mixture in a streptavidin-coated flash plate, where the binding between biotin and streptavidin occurs. The telomerase activity is proportional to the radioactivity measured and the inhibitory activity of the compounds is evaluated as IC50 using the Sigma Plot fit program. With the above-described method, IC50 values of the compounds of the present invention were determined. The data reported in Table 1 are only indicative since obtained during the screening by fitting a limited number of experimental points.
# Sequence of telomerase enzyme (O14746 whole entry): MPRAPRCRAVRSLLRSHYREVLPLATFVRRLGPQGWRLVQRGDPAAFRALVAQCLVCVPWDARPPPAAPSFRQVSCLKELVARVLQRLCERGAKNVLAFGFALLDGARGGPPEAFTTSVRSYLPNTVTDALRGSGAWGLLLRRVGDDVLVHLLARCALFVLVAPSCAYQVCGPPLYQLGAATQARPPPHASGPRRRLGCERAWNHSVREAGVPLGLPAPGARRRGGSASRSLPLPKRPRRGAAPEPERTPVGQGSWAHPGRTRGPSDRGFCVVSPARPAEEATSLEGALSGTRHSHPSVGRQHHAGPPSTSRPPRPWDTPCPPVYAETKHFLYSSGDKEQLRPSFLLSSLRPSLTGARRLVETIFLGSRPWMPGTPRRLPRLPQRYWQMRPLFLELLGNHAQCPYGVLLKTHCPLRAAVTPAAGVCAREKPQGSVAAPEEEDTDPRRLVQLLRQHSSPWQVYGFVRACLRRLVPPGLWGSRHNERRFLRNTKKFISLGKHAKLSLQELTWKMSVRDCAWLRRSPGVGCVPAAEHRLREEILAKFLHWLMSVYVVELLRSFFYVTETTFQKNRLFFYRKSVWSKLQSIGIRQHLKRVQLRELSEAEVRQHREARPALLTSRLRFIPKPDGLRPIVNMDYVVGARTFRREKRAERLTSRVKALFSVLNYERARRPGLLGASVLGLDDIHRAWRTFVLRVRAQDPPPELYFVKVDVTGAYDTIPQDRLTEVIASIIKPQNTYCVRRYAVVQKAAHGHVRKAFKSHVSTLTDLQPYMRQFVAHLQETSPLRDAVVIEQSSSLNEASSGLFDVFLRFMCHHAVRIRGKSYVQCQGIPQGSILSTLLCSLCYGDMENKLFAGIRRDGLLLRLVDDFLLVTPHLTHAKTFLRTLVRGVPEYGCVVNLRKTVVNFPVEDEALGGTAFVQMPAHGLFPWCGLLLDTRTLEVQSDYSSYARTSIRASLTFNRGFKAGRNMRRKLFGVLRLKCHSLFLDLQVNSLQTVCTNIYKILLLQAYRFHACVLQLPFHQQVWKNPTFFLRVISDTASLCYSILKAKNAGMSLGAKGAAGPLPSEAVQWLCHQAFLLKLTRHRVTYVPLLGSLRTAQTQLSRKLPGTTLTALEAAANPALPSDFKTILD
row,SMILES,IC50 [µM]
1,"Nc1nc(=O)c2c(ncn2Cc2ccc(Cl)c(Cl)c2)n1Cc1ccc(Cl)c(Cl)c1 [Compound 4, 2-amino-3,7-bis(3,4-dichlorobenzyl)-3,7-dihydro-6H-purin-6-one]",4
2,"Nc1nc(=O)c2c(ncn2Cc2ccc3ccccc3c2)n1Cc1ccc(-c2ccccc2)cc1 [Compound 5, 2-amino-3-([1,1-biphenyl]-4-ylmethyl)-7-(2-naphthylmethyl)-3,7-dihydro-6H-purin-6-one]",2
3,"Nc1nc(=O)c2c(ncn2Cc2ccc(-c3ccccc3)cc2)n1Cc1ccc2ccccc2c1 [Compound 6, 2-amino-3-(2-naphthylmethyl)-7-([1,1′-biphenyl]-4-ylmethyl)-3,7-dihydro-6H-purin-6-one]",2
4,"Nc1nc(=O)c2c(ncn2Cc2ccc3ccccc3c2)n1Cc1ccc2c(c1)C(=O)c1ccccc1C2=O [Compound 19, 2-{[2-amino-7-(2-naphthylmethyl)-6-oxo-6,7-dihydro-3H-purin-3-yl]methyl}anthra-9,10-quinone]",4
5,"Nc1nc(=O)c2c(ncn2Cc2ccc3ccccc3c2)n1Cc1ccc(-c2nnn[nH]2)cc1 [Compound 27, 2-amino-7-(2-naphthylmethyl)-3-[4-(1H-tetraazol-5-yl)benzyl]-3,7-dihydro-6H-purin-6-one]",19

# More lines, now with the values ahead:
row,IC50 [µM],SMILES
1,4,"Nc1nc(=O)c2c(ncn2Cc2ccc3ccccc3c2)n1Cc1ccc2ccccc2c1 [Compound 1, 2-amino-3,7-bis(2-naphthylmethyl)-3,7-dihydro-6H-purin-6-one]"
2,3,"Nc1nc(=O)c2c(ncn2Cc2ccc(-c3ccccc3)cc2)n1Cc1ccc(-c2ccccc2)cc1 [Compound 2, 2-amino-3,7-bis-[(1,1′-biphenyl)-4-ylmethyl]-3,7-dihydro-6H-purin-6-one]"
3,5,"Nc1nc(=O)c2c(ncn2Cc2ccc(-c3ccc(CCl)cc3)cc2)n1Cc1ccc(-c2ccc(CCl)cc2)cc1 [Compound 3, 2-amino-3,7-bis{[4′-(chloromethyl)[1,1′-biphenyl]-4-yl]methyl}-3,7-dihydro-6H-purin-6-one]"
4,3,"Nc1nc(=O)c2c(ncn2Cc2ccc3ccccc3c2)n1Cc1ccc(Cl)c(Cl)c1 [Compound 7, 2-amino-3 (3,4-dichlorobenzyl)-7-(2-naphthylmethyl)-3,7-dihydro-6H-purin-6-one]"
5,3,"Nc1nc(=O)c2c(ncn2Cc2ccc3ccccc3c2)n1Cc1cccc(Oc2ccccc2)c1 [Compound 8, 2-amino-3-(3-phenoxybenzyl)-7-(2-naphthylmethyl)-3,7-dihydro-6H-purin-6-one]"
6,21,"COC(=O)c1cccc(Cn2c(N)nc(=O)c3c2ncn3Cc2ccc3ccccc3c2)c1 [Compound 29, Methyl 3-{[2-amino-7-(2-naphthylmethyl)-6-oxo-6,7-dihydro-3H-purin-3-yl]methyl}benzoate]"
